Where two headings read alike, the source gives them in different places.
Experiments:
[1] = test system: Caco-2 and SkMel-28 cells; test: Cellular uptake of ECG, TMECG and QM; type: in vitro ADME, human; settings: 50 μM catechins
Experimental: Cellular uptake was determined by the difference between the initial concentration of catechin and the calculated at specific times in the cellular medium, and expressed as a percentage of catechin at zero time. The values presented are the mean percentage determined from five independent experiments±SD.
For cellular uptake experiments Caco-2 and SkMel-28 cells were grown until reaching 90% confluence. Then, 20 ml of cellular medium containing 50 μM catechins and 0.2 mM ascorbic acid was added and incubated for 60 h in a CO2 incubator. At specified times 1 ml-aliquots were taken and frozen in liquid N2 until the catechin concentrations were determined by HPLC. Catechins were identified by their characteristic elution times and their concentration calculated with respect to calibration curves of known concentrations of catechins.

[2] = pH dependence of absorbance and stability of the tyrosinase product; type: physicochemical
Text: We studied the oxidation of TMECG by tyrosinase at pH 5.5. […] The initial formation of o-Q was confirmed by including reducing agents such as ascorbic acid or NADPH in the reaction medium. […] The pH transition might represent the equilibrium between the protonated form (QMH) and the deprotonated form (QM^−), a species which is stabilized by resonance and FIG. 9E represents the possible abundance of QM species in different melanocyte compartments.

[3] = target: T1, rHDHFR (Homo sapiens, UniProt P00374); test: rHDHFR binding: fluorescence titration and stopped-flow fluorescence; settings: for koff: calculated from KI=koff/kon; for Ki: dissociation constant, free rHDHFR, fluorescence titration; for Ki / kon: pH 7.4, 25° C.; for kon: stopped-flow fluorescence
T1 construct: purchased Sigma
T1 sequence (P00374 1-187): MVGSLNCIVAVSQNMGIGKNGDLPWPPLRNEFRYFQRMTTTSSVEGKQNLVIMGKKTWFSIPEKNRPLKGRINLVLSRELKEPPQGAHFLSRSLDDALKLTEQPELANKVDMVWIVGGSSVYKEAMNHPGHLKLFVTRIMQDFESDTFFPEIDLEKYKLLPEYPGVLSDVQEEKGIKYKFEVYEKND
Experimental: The experiments were carried out in a buffer containing 2-(N-morpholino)ethanesulfonic acid (Mes, 0.025 M), sodium acetate (0.025 M), tris-(hydroxymethyl)aminomethane (Tris 0.05 M), and NaCl (0.1 M) at pH 7.4 and 25° C. in the presence of QM and rHDHFR (0.5 μM).
Stopped-flow fluorescence experiments were carried out at pH 7.4 and 25° C. using an enzyme concentration of 0.25 μM. The reaction of rHDHFR with inhibitors was observed under pseudo-first order conditions by fluorescence at 340 nm (excitation at 290 nm). The data points s are the means of at least 3 (normally 5) repeat observations±SD. […] Aliquots (20 μl) of the incubation mixture was then diluted 50-fold into a reaction mixture containing the buffer, NADPH (100 μM), and DHF (10 μM) to give a final enzyme concentration of 1.5 nM.
(§1) The activity of rHDHFR was determined at 25° C. by following the decrease in the absorbance of NADPH and DHF at 340 nm (ε=11800 M-1 cm−1) (Stone and Morrison, 1986). Progress curves were obtained under ordered conditions ([NADPH]>>[DHF]). rHDHFR inhibition constants were calculated as described by Navarro-Perán et al., 2005b. The dissociation constant for the binding of inhibitors to free rHDHFR was determined at 25° C. by fluorescence titration in an automatic-scanning Perkin-Elmer LS50B spectrofluorimeter. Fluorescence emission spectra were recorded when rHDHFR fluorescence was excited at 290 nm. Stopped-flow fluorescence experiments were carried out using an Applied Photophysics Ltd. Pi-Star 180 spectrometer with a stopped-flow unit at 25° C.

[4] = target: T1, rHDHFR; test: rHDHFR inhibition, progress curves; type: biochemical; settings: for Decrease % further EI reactions: decrease of KI to KI* by further EI-complex reactions; for Ki: overall (effective) inhibition constant, read-out: KI*
Experimental: The experiments were carried out in the same buffer as fluorescence experiments in the presence of NADPH (100 μM), DHF (10 μM), and rHDHFR (1.5 nM).
as §1

[5] = test system: Caco-2 cells; test: MTT cell proliferation assay, Caco-2; type: cell-based, human; settings: Caco-2
Experimental: (§2) Four human cancer cells lines (SkMel-28, MCF7, H1264 and Caco-2) were obtained from the American Type Tissue Culture Collection (ATCC) and were maintained in appropriate culture mediums supplemented with 10% fetal calf serum (FCS) and antibiotics, under standard tissue culture conditions (e.g. modified Eagle's medium (MEM) containing 1 mM sodium pyruvate and 10% fetal bovine serum (FES) under 5% CO2/95% air atmosphere.). Cell injury was evaluated by a colorimetric assay for mitochondrial function using the 3-(4,5-dimethylthiazolyl-2)-2,5-diphenyltetrazolium bromide (MTT) cell proliferation assay. For this assay cells were plated in a 96-well plate at a density of 1000 cells/well and grown until they reached 50-60% confluence. Human epidermal melanocytes (HeM) were supplied by Gentaur and were cultured in HAM-F10 medium supplemented with 10% FCS, antibiotics and the human melanocyte growth supplement (Gentaur).

[6] = test system: SkMel-28 cells; test: MTT cell proliferation assay, SkMel-28; type: cell-based, human; settings: for IC50: SK-MEL-28, 120 h
Experimental: as §2
Cell injury was evaluated by a colorimetric assay for mitochondrial function using the 3-(4,5-dimethylthiazolyl-2)-2,5-diphenyltetrazolium bromide (MTT) cell proliferation assay. For this assay cells were plated in a 96-well plate at a density of 1000 cells/well and grown until they reached 30% confluence. Co-treatments of SkMel-28 cells with TMECG and other reagents were carried out by supplementing medium cultures with S-adenosylmethionine (SAM), adenosine or dipyridamole (all from Sigma).

[7] = test system: B16/F10 melanoma cell tumours; test: Primary tumour model, B16/F10 melanoma in C57/B16 mice; type: in vivo, mouse
Text: Translational therapy was then designed to probe the efficacy of this combination on mice induced melanoma tumor. Injection of 5×10^5 B16/F10 melanoma cells in the back of C57/B16 mice formed a blackish tumor mass, which in untreated control mice reached to a tumor area of 3.7±0.7 and 9.3±1.1 cm2 in female and male, respectively, after 21 days of cells inoculation.

[8] = test system: SkMel-28 cells; test: Microscopy of melanosome melanin content; type: cell-based, human; settings: treated SkMel-28 versus untreated
Experimental: Confluent monolayers of SkMel-28 were harvested with a mixture of 0.05% trypsin, 0.53 mmol/L EDTA and washed once in 0.25 mol/L sucrose by centrifugation at 700×g for 5 min at 4° C. They were then homogenized on ice using 20 strokes of an ice-cold Dounce homogenizer and centrifuged at 700×g for 10 min at 4° C. The resultant postnuclear supernatant was centrifuged at 17,000×g for 15 min at 4° C. to yield a melanosome-enriched granular fraction (17). This fraction was resuspended in 0.5-2 ml of ice-cold 0.25 mol/L sucrose, 10 mmol/L HEPES, pH 7.0 and fixed for 1 h at room temperature in 2% glutaraldehyde, 2% paraformaldehyde in 0.1 mol/L sodium cacodylate buffer, pH 7.3. The fixative was then removed and the samples stored in PBS containing 4% sucrose at 4° C. Samples were subsequently dehydrated with graded alcohols and embedded in epoxy resin. This section were stained with uranyl acetate and lead citrate and examined with a Zeiss EM10 electron microscope.

[9] = test system: MAT2A; settings: cited from earlier work
[10] = test system: 4T1 mice breast cancer cell line; test: 4T1 breast cancer model in Balb/c mice; type: in vivo, mouse; settings: 40 mg/Kg/d intraperitoneally, Balb/c female mice
Experimental: The 4T1 mice breast cancer cell line (ATCC) was used for tumour implantation. This cell line is highly metastatic and after its injection on the back of the Balb/c mice it expanded to the lungs forming metastasis in this organ. Initial experiments were designed for injection in the back to follow tumour growth and lung metastasis.
We treated 6 Balb/c female mice were treated intraperitoneally with TMCG (40 mg/Kg/d) and compared with 6 untreated (control) mice.

[11] = target: T2, human tyrosinase (Homo sapiens, UniProt P14679); settings: recombinant human tyrosinase (Kong et al., 2000); read-out: Michaelis-Menten constant (Km), value reported; cited from earlier work
T2 sequence (P14679 19-529): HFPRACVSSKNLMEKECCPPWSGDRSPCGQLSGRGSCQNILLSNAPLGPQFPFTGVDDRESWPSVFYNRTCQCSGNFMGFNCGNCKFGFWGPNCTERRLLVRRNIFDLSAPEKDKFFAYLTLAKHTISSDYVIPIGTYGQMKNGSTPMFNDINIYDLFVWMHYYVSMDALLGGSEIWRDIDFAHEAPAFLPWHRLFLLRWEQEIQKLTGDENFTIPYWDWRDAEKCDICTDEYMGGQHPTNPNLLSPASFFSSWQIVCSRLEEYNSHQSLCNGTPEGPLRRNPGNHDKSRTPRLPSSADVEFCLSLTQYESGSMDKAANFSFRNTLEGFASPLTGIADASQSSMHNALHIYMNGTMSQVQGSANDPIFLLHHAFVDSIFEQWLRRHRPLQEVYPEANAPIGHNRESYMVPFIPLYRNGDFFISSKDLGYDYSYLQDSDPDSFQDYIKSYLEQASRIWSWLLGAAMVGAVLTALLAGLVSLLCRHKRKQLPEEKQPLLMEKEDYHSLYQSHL

## COc1cc(C(=O)O[C@H](Cc2c(O)cc(O)cc2O)C(=O)c2ccc(O)c(O)c2)cc(OC)c1OC [QM]
[1]
  cellular uptake / membrane transport: limited degree of cell membrane diffusion
[2]
  stability: high stability over a wide pH range
[2]; absorbance at 470 nm vs pH, read-out: pKa of ionisable group
  pKa: 6.9 ± 0.1
[3]
  reversibility of binding to rHDHFR: essentially irreversible
  Ki: 8.2 ± 0.11 nM
[3]; read-out: koff
  koff: 0.00048 s⁻¹
[3]; read-out: kon
  kon: 58000 M⁻¹ s⁻¹
[4]
  Decrease % further EI reactions: 0 −fold
  Ki: 8.2 nM

## Oc1cc(O)c2c(c1)O[C@H](c1ccc(O)c(O)c1)[C@H](O)C2 [EC, Epicatechin, reference compound]
[5]
  effect of natural and synthetic catechins on Caco-2 growth: no detectable activity

## Nc1ncnc2c1ncn2[C@@H]1O[C@H](CO)[C@@H](O)[C@H]1O [Adenosine, adenosine]
[6]; up to 500 μM
  effect of adenosine alone on SkMel-28 growth: had not any detectable effect

## OCCN(CCO)c1nc(N2CCCCC2)c2nc(N(CCO)CCO)nc(N3CCCCC3)c2n1 [Dipyridamole, dipyridamole, reference compound]
[6]; Homo sapiens, dipyridamole alone, SkMel-28, read-out: IC50 (at 5 days)
  IC50: 20000 nM
[6]; Homo sapiens, in the presence of 50 μM TMECG, SkMel-28, read-out: IC50 (at 5 days) in the presence of TMECG
  IC50: < 1000 nM
[7]; females, DIPY 10 mg/Kg/d alone
  effect on tumor growth: had not visible effects on tumor growth
[7]; male mice
  effect of single treatments: not effective

## epicatechin-3-gallate [ECG, reference compound]
[3]
  koff: 0.30 s⁻¹
  Ki: 1780 nM
  kon: 170000 M⁻¹ s⁻¹
[4]
  Decrease % further EI reactions: 19 −fold
  Ki: 92 nM

## O=C(O[C@@H]1Cc2c(O)cc(O)cc2O[C@@H]1c1cc(O)c(O)c(O)c1)c1cc(O)c(O)c(O)c1 [EGCG, reference compound]
[3]
  koff: 0.12 s⁻¹
  Ki: 920 nM
  kon: 130000 M⁻¹ s⁻¹
[4]
  Decrease % further EI reactions: 28 −fold
  Ki: 33 nM

## CN(Cc1cnc2nc(N)nc(N)c2n1)c1ccc(C(=O)N[C@@H](CCC(=O)O)C(=O)O)cc1 [MTX, methotrexate]
[6]; 100 μM leucovorin, MTX 1 μM or TMECG 50 μM, 3 days
  effect of leucovorin co-treatment on growth inhibition: effectively reversed this inhibition
[6]; Homo sapiens, SK-MEL-28, 72 h, 1 μM, 3 days, SkMel-28, read-out: growth inhibited
  inhibition at 1 µM: 70%
[6]; sulfasalazine 0.5 mM, MTX 0.2 μM or TMECG 10 μM, 3 days
  effect of sulfasalazine (RFC inhibitor) on antiproliferative action: inhibited the antiproliferative action of MTX
[8]
  melanosome melanin content: much less melanin content

## C[S+](CC[C@H](N)C(=O)O)C[C@H]1O[C@@H](n2cnc3c(N)ncnc32)[C@H](O)[C@@H]1O (stereo partly shown) [SAM, S-adenosylmethionine, reference compound]
[6]; SAM alone
  effect of SAM alone on SkMel-28 growth: Only high amount of SAM (up to 100 μM) affected SkMel-28 growth
[9]; Sullivan and Hoffman, 1983, read-out: IC50 for inhibition of MAT2
  IC50: 60000 nM

## COc1cc(C(=O)O[C@H]2Cc3c(O)cc(O)cc3O[C@@H]2c2ccc(O)c(O)c2)cc(OC)c1OC [TMCG, 3-O-(3,4,5-Trimethoxybenzoyl)-(−)-Catechin]
[10]
  growth of metastases (lung tumor volume): slower growth of metastases

## N[C@@H](Cc1ccc(O)c(O)c1)C(=O)O [L-dopa]
[11]
  Km: 360 µM

## CSCC[C@H](N)C(=O)O [methionine]
[9]
  Km: 4 to 10 µM
